# In ChEMBL document CHEMBL1201862, “PubChem BioAssay data set” (2004):
# Calls of active or inactive are those of the source.
# Tests used:
# [1] = molecular target: DNA dC->dU-editing enzyme APOBEC-3G (Homo sapiens, UniProt Q9HC16); assay: Dose Response confirmation of small molecule APOBEC3G DNA Deaminase Inhibitors via a fluorescence-based single-stranded DNA deaminase assay. [Related pubchem assays (depositor defined):AID493012, AID493028]; assay type: functional
# [2] = molecular target: DNA dC->dU-editing enzyme APOBEC-3A (Homo sapiens, UniProt P31941); assay: APOBEC3A DNA deaminase inhibitors, dose response, biochemical (AID 504722); assay type: functional
# Tumor necrosis factor = Tumor necrosis factor (Homo sapiens, UniProt P01375); assay: TNFa-triggered NF-kB activation inhibitors, SAR follow-up, cell-based, revised (AID 2337); assay type: functional
# [3] = molecular target: Nucleotide-binding oligomerization domain-containing protein 2 (Homo sapiens, UniProt Q9HC29); assay: PubChem AID 2334; assay type: functional
# [4] = molecular target: T1, Nucleotide-binding oligomerization domain-containing protein 1 (Homo sapiens, UniProt Q9Y239); assay: NOD1 signaling inhibitors, SAR follow-up, revised (AID 2333); assay type: functional
# T1 sequence (Q9Y239 whole entry): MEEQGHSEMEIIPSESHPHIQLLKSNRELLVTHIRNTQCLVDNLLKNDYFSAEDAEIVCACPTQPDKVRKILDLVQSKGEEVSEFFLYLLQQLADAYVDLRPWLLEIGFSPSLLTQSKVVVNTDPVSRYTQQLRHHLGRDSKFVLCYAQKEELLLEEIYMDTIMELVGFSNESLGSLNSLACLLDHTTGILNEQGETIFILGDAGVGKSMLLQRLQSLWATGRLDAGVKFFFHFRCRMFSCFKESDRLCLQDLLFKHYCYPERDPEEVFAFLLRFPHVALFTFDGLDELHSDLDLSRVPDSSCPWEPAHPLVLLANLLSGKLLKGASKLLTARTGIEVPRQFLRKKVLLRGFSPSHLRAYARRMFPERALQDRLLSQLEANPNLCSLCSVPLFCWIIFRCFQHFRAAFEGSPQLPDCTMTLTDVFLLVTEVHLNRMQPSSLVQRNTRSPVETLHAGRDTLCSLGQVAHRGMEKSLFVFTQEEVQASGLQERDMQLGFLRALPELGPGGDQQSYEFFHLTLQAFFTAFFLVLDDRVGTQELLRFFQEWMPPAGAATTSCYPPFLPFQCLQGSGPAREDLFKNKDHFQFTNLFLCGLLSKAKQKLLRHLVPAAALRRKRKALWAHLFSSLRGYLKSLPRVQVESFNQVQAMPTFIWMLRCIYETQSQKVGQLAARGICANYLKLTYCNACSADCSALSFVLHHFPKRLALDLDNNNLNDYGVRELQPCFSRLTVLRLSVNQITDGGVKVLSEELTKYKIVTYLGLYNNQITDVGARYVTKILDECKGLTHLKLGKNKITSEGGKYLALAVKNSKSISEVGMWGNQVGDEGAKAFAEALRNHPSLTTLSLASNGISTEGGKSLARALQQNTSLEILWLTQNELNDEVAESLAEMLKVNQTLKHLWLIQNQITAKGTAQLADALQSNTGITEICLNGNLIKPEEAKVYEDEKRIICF
# HEK293 = assay: cells; conditions: Homo sapiens;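 also: cells exposed to compound for 14 hours overnight before viability readout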
# [5] = molecular target: T2, G-protein coupled receptor 35 (Homo sapiens, UniProt Q9HC97); assay: SAR analysis of Antagonists of the GPR35 Receptor using an Image-Based Assay - Set 3. [Related pubchem assays (depositor defined):AID2013, AID2026]; assay type: functional
# [6] = molecular target: G-protein coupled receptor 55 (Homo sapiens, UniProt Q9Y2T6); assay: GPR55 antagonists blocking LPI-driven arrestin recruitment, primary screen, imaging, U2OS, beta-arrestin-GFP, LPI agonist (AID 2013); assay type: functional;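 also: antagonist potency measured as reduced agonist-driven arrestin aggregation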
# [7] = molecular target: T2, G-protein coupled receptor 35; assay: SAR analysis of Agonists of the GPR35 Receptor using an Image-Based Assay - Set 2. [Related pubchem assays (depositor defined):AID2013, AID2026]; assay type: functional
# Cannabinoid receptor 1 [8] = molecular target: T3, Cannabinoid receptor 1 (Homo sapiens, UniProt P21554); assay: SAR analysis of agonists of the Cannabinoid Receptor 1 using an Image-Based Assay - Set 2. [Related pubchem assays (depositor defined):AID2013, AID2026]; assay type: functional
# Cannabinoid receptor 2 [9] = molecular target: T4, Cannabinoid receptor 2 (Homo sapiens, UniProt P34972); assay: SAR analysis of agonists of the Cannabinoid Receptor 2 using an Image-Based Assay. [Related pubchem assays (depositor defined):AID2013, AID2026]; assay type: functional
# Cannabinoid receptor 2 [10] = molecular target: T4, Cannabinoid receptor 2; assay: SAR analysis of antagonists of the Cannabinoid Receptor 2 using an Image-Based Assay. [Related pubchem assays (depositor defined):AID2013, AID2026]; assay type: functional
# Cannabinoid receptor 1 [11] = molecular target: T3, Cannabinoid receptor 1; assay: SAR analysis of antagonists of the Cannabinoid Receptor 1 using an Image-Based Assay - Set 2. [Related pubchem assays (depositor defined):AID2013, AID2026]; assay type: functional
# [12] = inhibitors of Trypanosoma cruzi host-cell infection, confirmation, beta-gal luminescence, NIH3T3 host cells (AID 2630); assay type: functional, cell-based; conditions: Mus musculus
# Trypanosoma cruzi = assay: growth inhibition of intracellular Trypanosoma cruzi, dose response, cell-based, plate reader, dry powder, set 3 (AID 493197); assay type: functional
# [13] = mammalian cell cytotoxicity, dose response, cytotoxicity control, plate reader, cherry-pick samples (AID 504397); assay type: functional, cell-based
# [14] = molecular target: T5, Corticotropin-releasing factor receptor 2/Corticotropin-releasing factor-binding protein (Homo sapiens, UniProt P24387+Q13324); assay: activators of CRF receptor 2 with binding protein – uHTS hits, confirmation (AID 602473); assay type: functional; conditions: read-out: EC50_Mean
# T5 sequence (Q13324 whole entry): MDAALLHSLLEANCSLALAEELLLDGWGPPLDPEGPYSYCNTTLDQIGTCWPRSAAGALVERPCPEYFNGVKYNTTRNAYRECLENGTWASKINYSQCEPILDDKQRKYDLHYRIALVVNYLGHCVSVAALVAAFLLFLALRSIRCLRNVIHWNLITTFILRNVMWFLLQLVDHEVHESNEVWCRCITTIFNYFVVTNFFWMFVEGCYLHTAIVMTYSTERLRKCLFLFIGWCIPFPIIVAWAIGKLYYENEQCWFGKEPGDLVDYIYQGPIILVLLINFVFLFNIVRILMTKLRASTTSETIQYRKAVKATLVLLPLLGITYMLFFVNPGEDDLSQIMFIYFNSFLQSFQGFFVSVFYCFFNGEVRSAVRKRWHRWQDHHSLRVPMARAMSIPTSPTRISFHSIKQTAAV
# T5 sequence (P24387 whole entry): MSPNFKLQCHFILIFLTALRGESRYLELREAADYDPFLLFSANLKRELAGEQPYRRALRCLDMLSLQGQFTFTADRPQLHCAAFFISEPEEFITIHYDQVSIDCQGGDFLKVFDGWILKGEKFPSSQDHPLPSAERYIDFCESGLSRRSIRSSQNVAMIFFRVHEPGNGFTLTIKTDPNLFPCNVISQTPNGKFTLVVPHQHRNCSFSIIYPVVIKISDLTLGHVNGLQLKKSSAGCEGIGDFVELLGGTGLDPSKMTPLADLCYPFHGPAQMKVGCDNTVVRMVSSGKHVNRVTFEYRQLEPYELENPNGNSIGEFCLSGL
# [15] = molecular target: T5, Corticotropin-releasing factor receptor 2/Corticotropin-releasing factor-binding protein; assay: Dose Response confirmation of uHTS hits for small molecule antagonists of the CRF-binding protein and CRF-R2 receptor complex.; assay type: functional; conditions: read-out: IC50_Mean
# [16] = molecular target: Cyclin-dependent kinase 5/CDK5 activator 1 (Homo sapiens, UniProt Q00535); assay: CDK5/p35 kinase inhibitors, dose response, biochemical, cherry-picked samples, set 2 (AID 504545)
# Sequence of Cyclin-dependent kinase 5/CDK5 activator 1 (Q00535 whole entry): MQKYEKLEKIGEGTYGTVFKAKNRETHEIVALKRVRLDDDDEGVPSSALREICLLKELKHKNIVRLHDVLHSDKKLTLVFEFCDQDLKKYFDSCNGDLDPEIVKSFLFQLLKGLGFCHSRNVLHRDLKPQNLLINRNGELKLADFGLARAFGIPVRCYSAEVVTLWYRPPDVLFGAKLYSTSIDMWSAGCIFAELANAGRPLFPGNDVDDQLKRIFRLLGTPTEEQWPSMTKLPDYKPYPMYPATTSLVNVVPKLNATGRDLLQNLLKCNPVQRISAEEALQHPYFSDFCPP
# Sequence of Cyclin-dependent kinase 5/CDK5 activator 1 (Q15078 whole entry, further chain): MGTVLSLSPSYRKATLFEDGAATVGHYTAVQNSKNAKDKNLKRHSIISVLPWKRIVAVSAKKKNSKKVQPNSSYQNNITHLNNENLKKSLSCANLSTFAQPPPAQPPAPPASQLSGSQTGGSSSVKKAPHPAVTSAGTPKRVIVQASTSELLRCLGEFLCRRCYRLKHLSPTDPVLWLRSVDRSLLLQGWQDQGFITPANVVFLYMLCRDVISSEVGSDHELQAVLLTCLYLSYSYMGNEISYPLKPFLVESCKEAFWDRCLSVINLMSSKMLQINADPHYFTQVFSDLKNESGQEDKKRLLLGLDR
# T2 sequence (Q9HC97 whole entry): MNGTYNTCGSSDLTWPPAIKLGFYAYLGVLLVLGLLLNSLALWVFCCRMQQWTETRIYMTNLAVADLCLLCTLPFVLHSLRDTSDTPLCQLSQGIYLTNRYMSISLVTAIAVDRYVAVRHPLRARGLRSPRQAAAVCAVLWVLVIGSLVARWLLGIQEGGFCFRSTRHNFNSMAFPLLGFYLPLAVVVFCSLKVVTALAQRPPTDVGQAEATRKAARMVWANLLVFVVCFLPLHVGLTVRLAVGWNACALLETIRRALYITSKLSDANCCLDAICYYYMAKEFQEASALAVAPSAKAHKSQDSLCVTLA
# T3 sequence (P21554 whole entry): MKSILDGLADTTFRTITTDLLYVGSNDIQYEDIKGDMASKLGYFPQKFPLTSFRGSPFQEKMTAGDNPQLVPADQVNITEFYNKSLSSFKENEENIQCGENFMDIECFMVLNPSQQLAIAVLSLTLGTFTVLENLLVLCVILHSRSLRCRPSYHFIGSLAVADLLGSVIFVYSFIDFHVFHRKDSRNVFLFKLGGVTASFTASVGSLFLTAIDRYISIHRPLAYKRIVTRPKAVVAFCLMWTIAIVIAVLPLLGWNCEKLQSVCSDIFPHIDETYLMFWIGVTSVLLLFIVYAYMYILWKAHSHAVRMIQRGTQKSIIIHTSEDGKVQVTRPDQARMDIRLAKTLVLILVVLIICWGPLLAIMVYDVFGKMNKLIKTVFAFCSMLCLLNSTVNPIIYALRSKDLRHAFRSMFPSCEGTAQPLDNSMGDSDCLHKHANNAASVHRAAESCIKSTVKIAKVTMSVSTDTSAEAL
# T4 sequence (P34972 whole entry): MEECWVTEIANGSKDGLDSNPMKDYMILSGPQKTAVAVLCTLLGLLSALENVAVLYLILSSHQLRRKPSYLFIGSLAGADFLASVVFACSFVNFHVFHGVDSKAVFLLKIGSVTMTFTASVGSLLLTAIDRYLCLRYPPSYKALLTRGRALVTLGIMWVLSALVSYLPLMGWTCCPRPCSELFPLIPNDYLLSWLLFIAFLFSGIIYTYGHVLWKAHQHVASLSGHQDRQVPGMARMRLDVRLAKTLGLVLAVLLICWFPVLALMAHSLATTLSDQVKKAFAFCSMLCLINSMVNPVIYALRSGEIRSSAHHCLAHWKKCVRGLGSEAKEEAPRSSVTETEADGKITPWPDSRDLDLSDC
# Sequence of G-protein coupled receptor 55 (Q9Y2T6 whole entry): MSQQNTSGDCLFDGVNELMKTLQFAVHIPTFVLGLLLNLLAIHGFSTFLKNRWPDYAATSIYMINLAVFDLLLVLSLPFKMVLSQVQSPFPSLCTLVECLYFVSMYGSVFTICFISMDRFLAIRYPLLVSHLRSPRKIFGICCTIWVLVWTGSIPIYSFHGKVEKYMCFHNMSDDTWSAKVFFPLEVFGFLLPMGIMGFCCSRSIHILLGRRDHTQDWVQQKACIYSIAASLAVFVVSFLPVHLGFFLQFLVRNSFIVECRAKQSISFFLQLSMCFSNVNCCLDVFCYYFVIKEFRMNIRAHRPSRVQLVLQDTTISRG
# Sequence of Nucleotide-binding oligomerization domain-containing protein 2 (Q9HC29 whole entry, the tested form may be a part): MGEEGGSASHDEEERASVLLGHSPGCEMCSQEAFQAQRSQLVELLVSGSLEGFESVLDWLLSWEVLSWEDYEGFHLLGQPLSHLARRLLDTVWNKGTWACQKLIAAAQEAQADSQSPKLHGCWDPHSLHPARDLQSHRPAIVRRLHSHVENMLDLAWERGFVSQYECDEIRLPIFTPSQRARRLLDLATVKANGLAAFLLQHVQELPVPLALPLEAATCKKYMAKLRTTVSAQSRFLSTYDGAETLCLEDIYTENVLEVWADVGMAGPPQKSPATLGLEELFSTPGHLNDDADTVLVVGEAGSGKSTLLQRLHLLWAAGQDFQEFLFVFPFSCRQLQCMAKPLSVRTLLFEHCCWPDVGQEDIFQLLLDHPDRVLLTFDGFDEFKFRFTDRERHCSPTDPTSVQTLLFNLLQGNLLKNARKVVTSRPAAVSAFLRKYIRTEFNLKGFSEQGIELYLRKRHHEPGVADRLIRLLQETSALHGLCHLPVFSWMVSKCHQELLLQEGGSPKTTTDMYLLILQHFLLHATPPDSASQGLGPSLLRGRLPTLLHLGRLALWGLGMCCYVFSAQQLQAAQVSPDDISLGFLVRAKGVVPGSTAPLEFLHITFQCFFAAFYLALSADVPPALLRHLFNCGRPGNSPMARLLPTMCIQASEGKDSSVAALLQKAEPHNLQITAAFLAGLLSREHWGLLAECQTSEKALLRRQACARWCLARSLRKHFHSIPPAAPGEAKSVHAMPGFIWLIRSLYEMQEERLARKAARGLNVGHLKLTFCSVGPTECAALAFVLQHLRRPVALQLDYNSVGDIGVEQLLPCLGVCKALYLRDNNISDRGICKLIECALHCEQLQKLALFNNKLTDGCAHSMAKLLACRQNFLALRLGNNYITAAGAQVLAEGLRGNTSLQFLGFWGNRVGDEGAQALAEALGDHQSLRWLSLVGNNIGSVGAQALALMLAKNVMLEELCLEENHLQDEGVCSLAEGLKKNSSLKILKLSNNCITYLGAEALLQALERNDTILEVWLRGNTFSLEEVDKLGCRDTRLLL
# Sequence of DNA dC->dU-editing enzyme APOBEC-3A (P31941 whole entry): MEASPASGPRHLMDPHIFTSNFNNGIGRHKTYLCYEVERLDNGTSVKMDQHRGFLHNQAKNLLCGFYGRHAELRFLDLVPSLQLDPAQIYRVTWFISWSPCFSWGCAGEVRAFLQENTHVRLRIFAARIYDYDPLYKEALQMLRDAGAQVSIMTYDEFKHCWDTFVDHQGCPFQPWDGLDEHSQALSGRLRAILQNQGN
# Sequence of DNA dC->dU-editing enzyme APOBEC-3G (Q9HC16 whole entry): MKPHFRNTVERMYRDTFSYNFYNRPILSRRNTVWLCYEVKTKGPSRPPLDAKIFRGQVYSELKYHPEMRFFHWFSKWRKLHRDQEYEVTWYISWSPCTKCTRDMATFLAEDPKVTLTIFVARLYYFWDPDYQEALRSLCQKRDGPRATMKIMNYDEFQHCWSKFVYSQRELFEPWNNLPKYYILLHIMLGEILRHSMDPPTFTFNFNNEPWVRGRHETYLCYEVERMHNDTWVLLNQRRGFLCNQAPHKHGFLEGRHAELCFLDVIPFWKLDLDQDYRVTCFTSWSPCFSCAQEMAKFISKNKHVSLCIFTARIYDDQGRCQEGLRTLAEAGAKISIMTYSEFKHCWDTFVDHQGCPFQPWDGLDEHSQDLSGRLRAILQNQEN
# Sequence of Tumor necrosis factor (P01375 whole entry, the tested form may be a part): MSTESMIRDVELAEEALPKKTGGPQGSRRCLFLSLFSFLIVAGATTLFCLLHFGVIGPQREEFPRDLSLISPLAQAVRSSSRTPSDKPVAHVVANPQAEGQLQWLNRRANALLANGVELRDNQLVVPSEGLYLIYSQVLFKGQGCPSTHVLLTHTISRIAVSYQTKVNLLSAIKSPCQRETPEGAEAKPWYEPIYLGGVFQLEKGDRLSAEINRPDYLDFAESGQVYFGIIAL
smiles,measurement,setting,value
CN(CC(=O)Nc1nnc(S)s1)S(=O)(=O)c1cccc2cccnc12,IC50,[1],1.95 µM (active)
same,IC50,[2],> 100 µM (inactive)
Cc1cc(C(=O)NC2CCCc3c2cnn3-c2ccccc2F)n(Cc2ccc(F)cc2)n1 (centres undefined),IC50,Tumor necrosis factor,> 20 µM (inactive)
same,IC50,[3],> 20 µM (inactive)
same,IC50,[4],> 20 µM (inactive)
same,IC50,HEK293,> 20 µM (inactive)
Cc1ccc(C2(C(=O)N3CCC(n4nc(-c5ccccc5)oc4=O)CC3)CC2)cc1,IC50,[5],> 32 µM (inactive)
same,IC50,[6],4.28 µM (active)
same,EC50,[7],> 32 µM (inactive)
same,EC50,Cannabinoid receptor 1 [8],> 32 µM (inactive)
same,EC50,Cannabinoid receptor 2 [9],> 32 µM (inactive)
same,IC50,Cannabinoid receptor 2 [10],> 32 µM (inactive)
same,IC50,Cannabinoid receptor 1 [11],17.7 µM (inactive)
CCN(CC)C(=O)C1CCCN(Cc2cccc(Cl)c2)C1 (centres undefined),EC50,[12],1.33 µM (active)
same,AC50,Trypanosoma cruzi,9.91 µM (active)
C=CCn1c(SCc2ccc(C#N)cc2)nnc1-c1ccc(C)cc1,AC50,[13],98.3 µM (active)
Nc1ccc2c(c1)C(=NO)c1ccccc1-2,EC50,[14],> 53 µM (inactive)
same,IC50,[15],> 47.1 µM (inactive)
same,AC50,[16],39.9 µM (active)
